Experiments:
Assay type in all cases: in vivo
rice (Oryza sativa) = test: Test B flooded paddy test, plant response rating; settings: 250 g ai/ha; Flood; scale of 0 to 100 where 0 is no effect and 100 is complete control; 13 to 15 days
Method in brief: (§1)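 Flooded 3 cm over soil; compound into paddy water; depth kept constant. Greenhouse 13–15 d.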

[1] = test system: barnyardgrass (Echinochloa crus-galli); test: Test B flooded paddy test, plant response rating; settings: 250 g ai/ha; Flood; scale of 0 to 100 where 0 is no effect and 100 is complete control; 13 to 15 days
Method in brief: as §1

[2] = test system: sedge, umbrella (small-flower umbrella sedge, Cyperus difformis); test: Test B flooded paddy test, plant response rating; settings: 250 g ai/ha; Flood; scale of 0 to 100 where 0 is no effect and 100 is complete control; 13 to 15 days
Method in brief: as §1

[3] = test system: ducksalad (Heteranthera limosa); test: Test B flooded paddy test, plant response rating; settings: 250 g ai/ha; Flood; scale of 0 to 100 where 0 is no effect and 100 is complete control; 13 to 15 days
Method in brief: as §1

[4] = test system: blackgrass (Alopecurus myosuroides); test: Test A postemergence, visual injury rating; settings: 0 is no effect, 100 is complete control
Method in brief: (§2)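 Greenhouse pot test, loam/sand soil. Formulation: non-phytotoxic solvent mix plus surfactant. Pre: directed spray onto soil after sowing. Post: plants at 1–2 leaf, 2–10 cm. Rated visually vs untreated controls at ~10 d, 0 (no effect) to 100 (complete control).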

[5] = test system: galium (catchweed bedstraw, Galium aparine); test: Test A postemergence, visual injury rating; settings: 0 is no effect, 100 is complete control
Method in brief: as §2

[6] = test system: wheat (Triticum aestivum); test: Test A postemergence, visual injury rating; settings: 0 is no effect, 100 is complete control; for Wheat plant response rating: 0 to 100 scale, approximately 10 days
Method in brief: as §2

[7] = test system: ragweed (common ragweed, Ambrosia elatior); test: Test A postemergence, visual injury rating; settings: 0 is no effect, 100 is complete control; for Ragweed plant response rating: 0 to 100 scale, approximately 10 days
Method in brief: as §2

[8] = test system: Italian ryegrass (Lolium multiflorum); test: Test A postemergence, visual injury rating; settings: 0 is no effect, 100 is complete control; for Ryegrass, Italian plant response rating: 0 to 100 scale, approximately 10 days
Method in brief: as §2

corn (Zea mays) = test: Test A postemergence, visual injury rating; settings: 0 is no effect, 100 is complete control
Method in brief: as §2

[9] = test system: barnyardgrass (Echinochloa crus-galli); test: Test A postemergence, visual injury rating; settings: 0 is no effect, 100 is complete control
Method in brief: as §2

kochia (Kochia scoparia) [10] = test: Test A postemergence, visual injury rating; settings: 0 is no effect, 100 is complete control; for Kochia plant response rating: 0 to 100 scale, approximately 10 days
Method in brief: as §2

[11] = test system: pigweed (Amaranthus retroflexus); test: Test A postemergence, visual injury rating; settings: 0 is no effect, 100 is complete control; for Pigweed plant response rating: 0 to 100 scale, approximately 10 days
Method in brief: as §2

[12] = test system: giant foxtail (Setaria faberii); test: Test A postemergence, visual injury rating; settings: 0 is no effect, 100 is complete control
Method in brief: as §2

[13] = test system: ragweed (common ragweed, Ambrosia elatior); test: Test A preemergence, visual injury rating; settings: for Ragweed plant response rating: 0 to 100 scale (0 no effect, 100 complete control)
Method in brief: as §2

[14] = test system: Italian ryegrass (Lolium multiflorum); test: Test A preemergence, visual injury rating; settings: for Ryegrass, Italian plant response rating: 0 to 100 scale (0 no effect, 100 complete control)
Method in brief: as §2

[15] = test system: barnyardgrass (Echinochloa crus-galli); test: Test A preemergence, visual injury rating; settings: for Barnyardgrass plant response rating: 0 to 100 scale (0 no effect, 100 complete control)
Method in brief: as §2

kochia (Kochia scoparia) [16] = test: Test A preemergence, visual injury rating; settings: for Kochia plant response rating: 0 to 100 scale (0 no effect, 100 complete control)
Method in brief: as §2

[17] = test system: pigweed (Amaranthus retroflexus); test: Test A preemergence, visual injury rating; settings: for Pigweed plant response rating: 0 to 100 scale (0 no effect, 100 complete control)
Method in brief: as §2

[18] = test system: giant foxtail (Setaria faberii); test: Test A preemergence, visual injury rating; settings: for Foxtail, Giant plant response rating: 0 to 100 scale (0 no effect, 100 complete control)
Method in brief: as §2

[19] = 31 g ai/ha, 0 to 100 scale, approximately 10 days
[20] = 31 g ai/ha, 0 to 100 scale, 0 no effect, 100 complete control

| Structure (SMILES) | Plant response rating, Rice (rice (Oryza sativa)) | Plant response rating, Barnyardgrass [1] | Plant response rating, Sedge, Umbrella [2] | Plant response rating, Ducksalad [3] | Blackgrass plant response rating (0 to 100 scale) ([4]; 125 g ai/ha) | Galium plant response rating (0 to 100 scale) ([5]; 125 g ai/ha) | Wheat plant response rating ([6]; 125 g ai/ha) | Ragweed plant response rating ([7]; 125 g ai/ha) | Ryegrass, Italian plant response rating ([8]; 125 g ai/ha) | Corn plant response rating (0 to 100 scale) (corn (Zea mays); 125 g ai/ha) | Barnyardgrass plant response rating (0 to 100 scale) ([9]; 125 g ai/ha) | Kochia plant response rating (kochia (Kochia scoparia) [10]; 125 g ai/ha) | Pigweed plant response rating ([11]; 125 g ai/ha) | Foxtail, Giant plant response rating (0 to 100 scale) ([12]; 125 g ai/ha) | Ragweed plant response rating ([13]; 125 g ai/ha) | Ryegrass, Italian plant response rating ([14]; 125 g ai/ha) | Barnyardgrass plant response rating ([15]; 125 g ai/ha) | Kochia plant response rating (kochia (Kochia scoparia) [16]; 125 g ai/ha) | Pigweed plant response rating ([17]; 125 g ai/ha) | Foxtail, Giant plant response rating ([18]; 125 g ai/ha) | other results |
| --- | --- | --- | --- | --- | --- | --- | --- | --- | --- | --- | --- | --- | --- | --- | --- | --- | --- | --- | --- | --- | --- |
| O=C(OC1CCC1)c1c(Br)cccc1Oc1ncc(Cl)cn1 [Compound 78] | 15 | 20 | 80 | 70 | 20 | 70 | 20 | 0 | 0 | 40 | 60 | 70 | 80 | 50 | 0 | 0 | 60 | 20 | 80 | 90 | Blackgrass plant response rating (0 to 100 scale) ([4]; 500 g ai/ha): 60; Galium plant response rating (0 to 100 scale) ([5]; 500 g ai/ha): 100; Wheat plant response rating (0 to 100 scale) ([6]; 500 g ai/ha): 30; Ragweed plant response rating (0 to 100 scale) ([7]; 500 g ai/ha): 30; Ryegrass, Italian plant response rating (0 to 100 scale) ([8]; 500 g ai/ha): 30; Corn plant response rating (0 to 100 scale) (corn (Zea mays); 500 g ai/ha): 60; Barnyardgrass plant response rating (0 to 100 scale) ([9]; 500 g ai/ha): 100; Kochia plant response rating (0 to 100 scale) (kochia (Kochia scoparia) [10]; 500 g ai/ha): 100; Pigweed plant response rating (0 to 100 scale) ([11]; 500 g ai/ha): 90; Foxtail, Giant plant response rating (0 to 100 scale) ([12]; 500 g ai/ha): 80; Ragweed plant response rating ([13]; 500 g ai/ha): 0; Ryegrass, Italian plant response rating ([14]; 500 g ai/ha): 20; Barnyardgrass plant response rating ([15]; 500 g ai/ha): 100; Kochia plant response rating (kochia (Kochia scoparia) [16]; 500 g ai/ha): 60; Pigweed plant response rating ([17]; 500 g ai/ha): 100; Foxtail, Giant plant response rating ([18]; 500 g ai/ha): 100 |
| N#Cc1cccc(Oc2ncc(Cl)cn2)c1COCCCC(F)(F)F [Compound 81] | 0 | 45 | 100 | 100 | 40 | 80 | 0 | 10 | 10 | 40 | 50 | 50 | 100 | 70 | 0 | 20 | 90 | 90 | 100 | 100 | Blackgrass plant response rating [4, 19]: 10; Galium plant response rating [5, 19]: 30; Wheat plant response rating ([6]; 31 g ai/ha): 0; Ragweed plant response rating ([7]; 31 g ai/ha): 0; Ryegrass, Italian plant response rating ([8]; 31 g ai/ha): 0; Corn plant response rating (corn (Zea mays); [19]): 10; Barnyardgrass plant response rating [9, 19]: 10; Kochia plant response rating (kochia (Kochia scoparia) [10]; 31 g ai/ha): 30; Pigweed plant response rating ([11]; 31 g ai/ha): 50; Foxtail, Giant plant response rating [12, 19]: 20; Plant response rating, Ragweed [13, 20]: 0; Plant response rating, Ryegrass, Italian [14, 20]: 0; Plant response rating, Barnyardgrass [15, 20]: 10; Plant response rating, Kochia (kochia (Kochia scoparia) [16]; [20]): 0; Plant response rating, Pigweed [17, 20]: 100; Plant response rating, Foxtail, Giant [18, 20]: 30 |

Source: patent US11053204B2, “Pyrimidinyloxy benzene derivatives as herbicides” (FMC Corporation, priority 2015, dated 2021)
